Measured values as given in PMC10848769, “Tartrolon E, a secondary metabolite of a marine symbiotic bacterium, is a potent inhibitor of asexual and sexual Plasmodium falciparum” (Antimicrobial Agents and Chemotherapy, 2024).
Read-outs that look alike come from different tables or passages of the source. Values belong to the compound of their own block, whether it stands above or below them.

Columns and labels:
[1] = test system: P. falciparum 3D7 asexual blood stages; assay: Standard 72-hour inhibitor-response (parasite proliferation) assay; type: cell-based; conditions: Plasmodium falciparum, read-out: 3D7 EC50
P. falciparum clone 3D7 [2] = assay: Standard growth inhibition assay, Pf clone panel; type: cell-based; conditions: Plasmodium falciparum; clone 3D7, Netherlands; read-out: EC50 (nM) (95% CI)
Method: (§1) A diverse panel of P. falciparum clones, collected from four continents with varying genetic backgrounds and well-characterized susceptibilities to novel and existing antimalarials, was treated with TrtE and DHA in standard growth inhibition assays. […] Additional studies are needed to determine whether there is any similarity in mechanism between TrtE and DHA.

P. falciparum clone 7G8 [3] = assay: Standard growth inhibition assay, Pf clone panel; type: cell-based; conditions: Plasmodium falciparum; clone 7G8, Brazil; read-out: EC50 (nM) (95% CI)
Method: as §1

[4] = test system: P. falciparum clone D10 w/ yDHODH; assay: Standard growth inhibition assay, Pf clone panel; type: cell-based; conditions: Plasmodium falciparum, D10, read-out: EC50 (nM) (95% CI)
Method: as §1

P. falciparum clone D6 [5] = assay: Standard growth inhibition assay, Pf clone panel; type: cell-based; conditions: Plasmodium falciparum; clone D6, Sierra Leone; read-out: EC50 (nM) (95% CI)
Method: as §1

P. falciparum clone Dd2 [6] = assay: Standard growth inhibition assay, Pf clone panel; type: cell-based; conditions: Plasmodium falciparum
Method: as §1

P. falciparum clone GMC1 [7] = assay: Standard growth inhibition assay, Pf clone panel; type: cell-based; conditions: Plasmodium falciparum; clone GMC1, Goa, India; read-out: EC50 (nM) (95% CI)
Method: as §1

P. falciparum clone HB3 [8] = assay: Standard growth inhibition assay, Pf clone panel; type: cell-based; conditions: Plasmodium falciparum; clone HB3, Honduras; read-out: EC50 (nM) (95% CI)
Method: as §1

[9] = test system: P. falciparum clone IPC 3445; assay: Standard growth inhibition assay, Pf clone panel; type: cell-based; conditions: Plasmodium falciparum; clone IPC 3445, Palin, Cambodia; read-out: EC50 (nM) (95% CI)
Method: as §1

[10] = test system: P. falciparum clone IPC 5202; assay: Standard growth inhibition assay, Pf clone panel; type: cell-based; conditions: Plasmodium falciparum; clone IPC 5202, Battambang, Cambodia; read-out: EC50 (nM) (95% CI)
Method: as §1

P. falciparum clone NF54 [11] = assay: Standard growth inhibition assay, Pf clone panel; type: cell-based; conditions: Plasmodium falciparum; clone NF54, Netherlands; read-out: EC50 (nM) (95% CI)
Method: as §1

[12] = test system: P. falciparum clone TM90C2A; assay: Standard growth inhibition assay, Pf clone panel; type: cell-based; conditions: Plasmodium falciparum, Thailand, read-out: EC50 (nM) (95% CI)
Method: as §1

P. falciparum clone V1/S [13] = assay: Standard growth inhibition assay, Pf clone panel; type: cell-based; conditions: Plasmodium falciparum, Vietnam, read-out: EC50 (nM) (95% CI)
Method: as §1

Pf 3D7 = assay: Parasite growth alongside mammalian cytotoxicity assays; type: cell-based; conditions: Plasmodium falciparum; 3D7, grown under identical conditions alongside mammalian cells; read-out: EC50 (µM) (95% CI) 3D7
Method: (§2) In preliminary experiments to evaluate cytotoxicity to mammalian cells, the murine leukemia L1210 cell line and the human liver cell line HepG2 were grown under identical conditions alongside Pf 3D7. These were treated with TrtE, the chemotherapeutic methotrexate, and DSM265, an inhibitor of parasite dihydroorotate dehydrogenase ([19]).

[14] = test system: human liver cell line HepG2; assay: In vitro cytotoxicity assay; type: cell-based; conditions: for Selectivity index (EC50 of HepG2/EC50 3D7): HepG2 vs 3D7; for EC50: Homo sapiens
Method: as §2

[15] = test system: murine leukemia L1210 cell line; assay: In vitro cytotoxicity assay; conditions: for Selectivity index (EC50 of L1210/EC50 3D7): L1210 vs 3D7; for EC50: Mus musculus, L1210, read-out: EC50 (µM) (95% CI) L1210
Method: as §2

[16] = test system: diverse panel of P. falciparum clones; assay: Standard growth inhibition assays, whole panel; type: cell-based, Plasmodium falciparum; conditions: including two artemisinin-resistant clones from Western Cambodia
Method: as §1

[17] = test system: Pf NF54 late-stage gametocytes (stage III to stage V); assay: Late-stage gametocyte viability assay (alamarBlue); type: cell-based; conditions: Plasmodium falciparum, 72 h, 3 days treatment, three independent experiments
Method: (§3) Gametocytes of Pf NF54, the competent gametocyte-producing clone, were treated with TrtE as previously described ([15], [16]). […] To validate the in vitro gametocytocidal activity of TrtE, mosquito infectivity assays were conducted. […] Oocyst development in mosquitoes represents a significant bottleneck in the life cycle of Plasmodium spp. where transmission can be efficiently interrupted ([18]).
Fig 3 TrtE activity against gametocytes. Enriched, late-stage gametocytes were treated for 3 days with TrtE and then viability-tested with alamarBlue (Invitrogen) ([15], [16]). Three independent experiments (squares, triangles, and diamonds) determined the average EC50 to be 140 ± 42 nM.

[18] = test system: P. falciparum NF54 oocyst development in Anopheles dirus mosquitoes; assay: Mosquito infectivity assay (standard membrane feeding, oocyst count); type: in vivo, Plasmodium falciparum; conditions: 100 nM TrtE on late-stage gametocytes, fed to Anopheles dirus, oocysts counted after 9 days, four independent experiments, P = 0.016
Method: as §3
Fig 4 TrtE inhibition of oocyst development in mosquitoes. Late-stage Pf NF54 gametocytes were incubated with 100 nM TrtE, the approximate gametocidal EC50, or left untreated. Following incubation and development to stage V, the cultures were fed to female Anopheles dirus mosquitoes using standard membrane feeding techniques. After 9 days, the mosquitoes were dissected, and oocysts were stained and counted. The infection rate was measured as the ratio of mosquitoes with one or more oocysts to the number of dissected mosquitoes. ^*P < 0.05.

asexual parasites = conditions: preliminary single-step selection, data not shown
[19] = test system: P. falciparum clone IPC 5202; parameters: method as in BEI, Didier Menard; conditions: by EC50 or, for ART, RSA, well-characterized susceptibilities, ref BEI, Didier Menard; cited from earlier work
[20] = test system: P. falciparum clone IPC 3445; parameters: method as in BEI, Didier Menard; conditions: by EC50 or, for ART, RSA, well-characterized susceptibilities, ref BEI, Didier Menard; cited from earlier work
P. falciparum clone Dd2 [21] = conditions: by EC50 or, for ART, RSA, well-characterized susceptibilities; cited from earlier work
P. falciparum clone GMC1 [22] = conditions: by EC50 or, for ART, RSA, well-characterized susceptibilities; cited from earlier work
[23] = test system: P. falciparum clone TM90C2A; conditions: by EC50 or, for ART, RSA, well-characterized susceptibilities; cited from earlier work
P. falciparum clone 7G8 [24] = conditions: by EC50 or, for ART, RSA, well-characterized susceptibilities; cited from earlier work
P. falciparum clone V1/S [25] = conditions: by EC50 or, for ART, RSA, well-characterized susceptibilities; cited from earlier work
P. falciparum clone HB3 [26] = conditions: by EC50 or, for ART, RSA, well-characterized susceptibilities; cited from earlier work
P. falciparum clone NF54 [27] = conditions: by EC50 or, for ART, RSA, well-characterized susceptibilities; cited from earlier work
P. falciparum clone 3D7 [28] = conditions: by EC50 or, for ART, RSA, well-characterized susceptibilities; cited from earlier work
P. falciparum clone D6 [29] = conditions: by EC50 or, for ART, RSA, well-characterized susceptibilities; cited from earlier work
[30] = test system: P. falciparum clone D10 w/ yDHODH; conditions: by EC50 or, for ART, RSA, well-characterized susceptibilities; cited from earlier work
[31] = test system: P. falciparum gametocytes; parameters: method as in PMID 24206914; conditions: read-out: gametocytocidal potency of comparator antimalarials; cited from earlier work
[32] = HepG2, read-out: EC50 (µM) (95% CI) HepG2

Structure (SMILES): C[C@H]1[C@@H](O)O[C@@H]2O[C@@]3(C)CC[C@H]4[C@H](C)CC[C@@H]1[C@@]24OO3 [DHA, dihydroartemisinin]
EC50 ([1]; 3D7, 72-hour assay): 0.129 nM
EC50 (P. falciparum clone 3D7 [2]): 0.11 nM
EC50 (P. falciparum clone 7G8 [3]): 0.095 nM
EC50 [4]: 0.12 nM
EC50 (P. falciparum clone D6 [5]): 0.17 nM
EC50 (P. falciparum clone Dd2 [6]; clone Dd2, SE Asia, read-out: EC50 (nM) (95% CI)): 0.14 nM
EC50 (P. falciparum clone GMC1 [7]): 0.21 nM
EC50 (P. falciparum clone HB3 [8]): 0.16 nM
EC50 [9]: 0.92 nM
EC50 [10]: 0.94 nM
EC50 (P. falciparum clone NF54 [11]): 0.15 nM
EC50 [12]: 0.091 nM
EC50 (P. falciparum clone V1/S [13]): 0.084 nM

EC50 ([1]; 3D7, 72-hour assay): 5 nM
Structure (SMILES): Cc1cc(Nc2ccc(S(F)(F)(F)(F)F)cc2)n2nc(C(C)(F)F)nc2n1 [DSM265]
EC50 (Pf 3D7): 0.005 µM
Selectivity index (EC50 of HepG2/EC50 3D7) [14]: 1,980
EC50 [14, 32]: 9.9 µM
Selectivity index (EC50 of L1210/EC50 3D7) [15]: > 4,000
EC50 [15]: > 20 µM

Structure (SMILES): CN(Cc1cnc2nc(N)nc(N)c2n1)c1ccc(C(=O)N[C@@H](CCC(=O)O)C(=O)O)cc1 [Methotrexate]
EC50 (Pf 3D7): 0.047 µM
EC50 [14, 32]: > 1 µM
EC50 [15]: 0.012 µM

Structure (SMILES): C[C@@H]1CCC2CC(=O)C[C@@H](O)CC/C=C/C=C\CC[C@H](C)OC(=O)[C@@H]3O[B-]45O[C@@H](C(=O)O[C@@H](C)CC/C=C\C=C\CC[C@H](O)CC(=O)CC6CC[C@@H](C)[C@]3(O6)O4)[C@@]1(O2)O5 [Tartrolon E]
EC50 ([1]; 3D7, 72-hour assay): 0.105 nM
EC50 (P. falciparum clone 3D7 [2]): 0.16 nM
EC50 (P. falciparum clone 7G8 [3]): 0.18 nM
EC50 [4]: 0.19 nM
EC50 (P. falciparum clone D6 [5]): 0.14 nM
EC50 (P. falciparum clone Dd2 [6]; DD2, read-out: EC50 (nM) (95% CI)): 0.28 nM
EC50 (P. falciparum clone GMC1 [7]): 0.26 nM
EC50 (P. falciparum clone HB3 [8]): 0.13 nM
EC50 [9]: 0.73 nM
EC50 [10]: 0.81 nM
EC50 (P. falciparum clone NF54 [11]): 0.2 nM
EC50 [12]: 0.16 nM
EC50 (P. falciparum clone V1/S [13]): 0.31 nM
Concentration inhibiting all clones of the panel [16]: sub-nanomolar concentrations
EC50 [17]: 140 nM
Mosquito infection by P. falciparum (infection rate, oocysts) [18]: significantly inhibited mosquito infection
EC50 (Pf 3D7): 0.00016 µM
Selectivity index (EC50 of HepG2/EC50 3D7) [14]: 444
EC50 [14, 32]: 0.071 µM
EC50 ([14]; HepG2, as printed in text, read-out: HepG2 EC50): 0.07 µM
Concentration inhibiting L1210 growth ([15]; L1210): sub-micromolar concentrations
Selectivity index (EC50 of L1210/EC50 3D7) [15]: 1,438
EC50 [15]: 0.23 µM
Hurdle to resistance under drug pressure (asexual parasites): high hurdles to resistance

Structure (SMILES): O=C1C(O)=C([C@H]2CC[C@H](c3ccc(Cl)cc3)CC2)C(=O)c2ccccc21 [atovaquone]
EC50 ([1]; 3D7, 72-hour assay): 1 nM
Clone susceptibility to antimalarial (R/S) [19]: S
Clone susceptibility to antimalarial (R/S) [20]: S
Clone susceptibility to antimalarial (R/S) (P. falciparum clone Dd2 [21]): S
Clone susceptibility to antimalarial (R/S) (P. falciparum clone GMC1 [22]): S
Clone susceptibility to antimalarial (R/S) [23]: S
Clone susceptibility to antimalarial (R/S) (P. falciparum clone 7G8 [24]): S
Clone susceptibility to antimalarial (R/S) (P. falciparum clone V1/S [25]): S
Clone susceptibility to antimalarial (R/S) (P. falciparum clone HB3 [26]): S
Clone susceptibility to antimalarial (R/S) (P. falciparum clone NF54 [27]): S
Clone susceptibility to antimalarial (R/S) (P. falciparum clone 3D7 [28]): S
Clone susceptibility to antimalarial (R/S) (P. falciparum clone D6 [29]): S
Clone susceptibility to antimalarial (R/S) [30]: R

Structure (SMILES): CCN(CC)CCCC(C)Nc1ccnc2cc(Cl)ccc12 (centres unmarked) [chloroquine]
EC50 ([1]; 3D7, 72 h): 6 nM
Clone susceptibility to antimalarial (R/S) [19]: R
Clone susceptibility to antimalarial (R/S) [20]: R
Clone susceptibility to antimalarial (R/S) (P. falciparum clone Dd2 [21]): R
Clone susceptibility to antimalarial (R/S) (P. falciparum clone GMC1 [22]): R
Clone susceptibility to antimalarial (R/S) [23]: R
Clone susceptibility to antimalarial (R/S) (P. falciparum clone 7G8 [24]): R
Clone susceptibility to antimalarial (R/S) (P. falciparum clone V1/S [25]): R
Clone susceptibility to antimalarial (R/S) (P. falciparum clone HB3 [26]): S
Clone susceptibility to antimalarial (R/S) (P. falciparum clone NF54 [27]): S
Clone susceptibility to antimalarial (R/S) (P. falciparum clone 3D7 [28]): S
Clone susceptibility to antimalarial (R/S) (P. falciparum clone D6 [29]): S
Clone susceptibility to antimalarial (R/S) [30]: S

Structure (SMILES): COc1cc(NC(C)CCCN)c2ncccc2c1 (centres unmarked) [primaquine]
EC50 [31]: > 40000 nM

Structure (SMILES): COc1ccc2nc3cc(Cl)ccc3c(Nc3cc(CN4CCCC4)c(O)c(CN4CCCC4)c3)c2n1 [pyronaridine]
EC50 [31]: 4260 nM
